Results as given in US20220062310A1, “[…] PATIENTS WITH OBSESSIVE-COMPULSIVE DISORDER” (YALE UNIVERSITY, priority 2020, published 2022).

Tests used:
humans [1] = conditions: pure psilocybin; cited from earlier work
study participants = conditions: cited from earlier work
[2] = tested on: patients with treatment resistant OCD; experiment: Double-blind, placebo controlled study of psilocybin in OCD (NCT03356483): acute-YBOCS / YBOCS
[3] = non-medical use as mushrooms; cited from earlier work
mice = conditions: cited from earlier work
[4] = tested on: patients with treatment resistant OCD; experiment: Same OCD study: state and trait anxiety scores (STAI); type: in vivo, human; conditions: single dose 0.25 mg/kg
Text: (§1) Research Materials and Measures: Participants can complete self-report and clinician-administered measures of OCD symptoms, anxiety, depression, quality of life, and spirituality at baseline, prior to psilocybin session, and during all designated study visits. […]

[5] = tested on: serotonin 5-hydroxytryptamine (5-HT) receptors; conditions: after conversion in the body to psilocin; most affinity to 5-HT2A and 5-HT2C, lesser to 5-HT1A; cited from earlier work
humans [6] = experiment: Estimated lethal dose of pure psilocybin in humans; conditions: 0.25 mg/kg versus LD50 in nonhuman animals and in humans
humans [7] = conditions: oral doses of up to 0.6 mg/kg; cited from earlier work
rats = conditions: cited from earlier work
[8] = tested on: patients with treatment resistant OCD; experiment: Same OCD study: depression scores (Montgomery-Asberg Depression Rating Scale); type: in vivo, human; conditions: single dose 0.25 mg/kg; scores not high in most subjects
Text: as §1

OCD symptoms = conditions: low doses (2 mg-4 mg); cited from earlier work

CN(C)CCc1c[nH]c2cccc(OP(=O)(O)O)c12 [psilocybin, 3-(2-dimethylaminoethyl)-1H-indol-4-yl] dihydrogen phosphate]
best estimate of a lethal dose (humans [1]): about 19 grams
reactions requiring pharmacological intervention (study participants; 30 mg psilocybin): no reactions requiring pharmacological intervention occurred
rates of prolonged psychiatric symptoms of any kind following exposure (study participants; healthy study participants): 0.08-0.09%
participants with distress sufficient to contact the researchers (study participants; meta-analysis, 110 research participants (1 participant)): 0.9%
participants who endorsed negative changes in psychological well-being (study participants; meta-analysis, 110 research participants): 7 participants
duration of common acute side effects (study participants; most effects): last no longer than six hours
adverse events associated with drug administration (study participants; over 2000 participants under controlled conditions): no reports of the occurrence of a significance of adverse events
subjects with persistent perceptual symptoms associated with HPPD (study participants; review of studies 1999 to 2008, mild, brief, resolved within three days): one subject (out of 110)
improvement in OCD symptoms after psilocybin in subjects who had previously received placebo (FIG. 4) ([2]; open-label, one of three subjects, 12 weeks follow-up): robust and lasting improvement in symptoms
persistence of the improvement in symptoms ([2]; single dose 0.25 mg/kg, the three improved subjects): 12 weeks
improvement in OCD symptoms (YBOCS, FIG. 2 and 3) ([2]; single dose 0.25 mg/kg, three of the subjects receiving psilocybin): robust improvement in symptoms
acute-YBOCS score (M) at 48-hours after drug administration ([2]; single oral dose 0.25 mg/kg, N=5, baseline M=25.5 (18 to 29), SD=11.52, t(3)=2.71, p=0.036): 15
share of drug-related emergency department visits that mention it [3]: 0.1%
LD50 (mice): 285 mg/kg
state anxiety scores (FIG. 6) [4]: improved in those subjects whose OCD symptoms also improved
action at 5-HT receptors [5]: partial agonist
full study dose relative to LD50 (humans [6]): over 100 times smaller
serious adverse events (humans [7]): no serious adverse events
LD50 (rats): 285 mg/kg
depression scores (MADRS, FIG. 5) [8]: improved after psilocybin in several subjects
acute effect on OCD symptoms (OCD symptoms): acutely attenuated OCD symptoms even after low doses
